Test results: patent publication US7012082B2, “Method of correcting HERG channel dysfunction” (priority 2002, dated 2006)

Key:
HERG N470D = molecular target: T1, HERG N470D (Homo sapiens, UniProt Q12809, N470D); conditions: cultured at physiological temperature in low concentrations of drug; earlier publications; cited from earlier work
T1 construct: expressed in transfected cells

[1] = molecular target: T2, HERG N470D mutant channels (Homo sapiens, UniProt Q12809, N470D); conditions: cultured at physiological temperature in low concentrations of drug; earlier publications; cited from earlier work
[2] = molecular target: T2, HERG N470D mutant channels

| Molecule | mature HERG protein band on western blot, N470D cells (HERG N470D) | HERG current after drug washout, N470D cells (pharmacological rescue) [1] | rescue of N470D current [2] |
| --- | --- | --- | --- |
| COc1cc(N)c(Cl)cc1C(=O)NC1CCN(CCCOc2ccc(F)cc2)CC1OC (stereo not drawn) [cisapride] | appearance on western blot analysis of the mature HERG protein band | large amplitude HERG current could be recorded | – |
| Sodium-phenylbutyrate [4PBA] | – | – | did not rescue N470D current |
